Experimental data published in patent US9156811B2 (priority 2008, dated 2015).
Where two headings read alike, the source gives them in different places.

Legend:
[1] = system: Trypanosome (T. brucei brucei); assay: In-vitro antitrypanosomal efficacy assay (cell growth, resazurin); type: cell-based
[2] = target: T. brucei N-myristoyl transferase (Trypanosoma brucei brucei (strain 927/4 GUTat10.1), UniProt Q388H8); assay: biochemical; type: biochemical
[3] = value with no enzyme tag in the cell, taken as T. brucei NMT, read-out: IC50 (μM) NMT Enzyme
[4] = value printed without enzyme tag in the NMT Enzyme column (taken as T. brucei NMT), read-out: IC50 (μM) NMT Enzyme
[5] = T. brucei brucei, blood stream form, variant 221
[6] = T. brucei NMT, value without parentheses, read-out: IC50 (μM) NMT Enzyme (T. brucei NMT)

Sequence of T. brucei N-myristoyl transferase (Q388H8 1-446): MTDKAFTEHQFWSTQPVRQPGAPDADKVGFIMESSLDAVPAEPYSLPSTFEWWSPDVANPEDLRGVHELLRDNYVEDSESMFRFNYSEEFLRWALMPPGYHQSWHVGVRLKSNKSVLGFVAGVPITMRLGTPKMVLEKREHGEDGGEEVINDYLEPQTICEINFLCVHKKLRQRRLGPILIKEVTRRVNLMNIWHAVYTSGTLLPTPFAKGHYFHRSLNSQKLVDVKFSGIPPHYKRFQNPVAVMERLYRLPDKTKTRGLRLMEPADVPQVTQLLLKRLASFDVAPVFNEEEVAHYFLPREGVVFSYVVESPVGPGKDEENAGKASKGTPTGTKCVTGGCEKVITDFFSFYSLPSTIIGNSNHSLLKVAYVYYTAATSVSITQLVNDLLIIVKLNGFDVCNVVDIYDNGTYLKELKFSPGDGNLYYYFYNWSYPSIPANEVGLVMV

Row | IC50 [2, 3] [µM] | IC50 [2, 4] [µM] | Compound | ED50 (μM) T. brucei ([1]; T. brucei cell growth) [µM] | ED50 (μM) T. brucei [1, 5] [µM] | IC50 [2, 6] [µM]
1 | 0.006 |  | Cc1c(N[S+](=O)([O-])c2c(Cl)cc(CCCN3CCN(C)CC3)cc2Cl)c(CC(C)C)nn1C [DDD90060] | 0.02 |  | 
2 |  | 69 | CC(=O)Nc1cc(C)c([S+](=O)([O-])Nc2c(C)nn(C)c2C)s1 [DDD73219] | >1 |  | 
3 | 3.3 |  | Cc1nn(C)c(C)c1N[S+](=O)([O-])c1ccc(CNCCN(C)C)cc1 [DDD85640] | >50 |  | 
4 | 0.014 |  | Cc1cc(CN(C)C)cc(-c2ccc([S+](=O)([O-])Nc3c(CC(C)C)nn(C)c3C)cc2)c1 [DDD99817] | 0.047 |  | 
5 |  |  | Cc1c(N[S+](=O)([O-])c2ccc(CCCCC3CCN(C)CC3)cc2)c(CC(C)C)nn1C [DDD100162] |  | 0.093 | 0.01
6 |  | 18.2 | Cc1nn(C)c(C)c1N[S+](=O)([O-])c1ccc(N2Cc3ccccc3C2)nc1 [DDD85598] | >1 |  | 
7 |  | 1.9 | Cc1nn(C)c(C)c1N[S+](=O)([O-])c1ccc(Cn2ccnc2)cc1 [DDD73232] | 18.6 |  | 
8 | 0.004 |  | Cc1nn(C)c(C)c1N[S+](=O)([O-])c1c(F)cc(-c2ccnc(N3CCNCC3)c2)cc1F [DDD88323] | 0.005 |  | 
9 |  | 1.9 | Cc1nn(C)c(C)c1N(C1CCCC1)[S+](=O)([O-])c1c(Cl)cc(Br)cc1Cl [DDD85600] | 5.9 |  | 
10 | 34.4 |  | Cc1nn(C)c(C)c1N[S+](=O)([O-])c1ccc(N2CCC(N3CCN(Cc4ccccc4)CC3)C2)nc1 (centres unmarked) [DDD87760] | >1 |  | 
11 |  | 0.76 | COc1ccc(SCc2ccc([S+](=O)([O-])Nc3c(C)nn(C)c3C)cc2)cc1 [DDD73231] | 6.7 |  | 
12 |  | 9.7 | Cc1nn(C)c(C)c1N[S+](=O)([O-])c1ccc(CNc2ccc(C(C)C)cc2)cc1 [DDD73505] | >1 |  | 
13 | 0.027 |  | Cc1nn(C)c(C)c1N[S+](=O)([O-])c1ccc(CCCN2CCN(C)CC2)cc1Cl [DDD90058] | 0.20 |  | 
14 |  | 4.9 | Cc1nn(C)c(C)c1N(CCc1ccccc1)[S+](=O)([O-])c1c(Cl)cc(Br)cc1Cl [DDD85606] | 3.6 |  | 
15 |  | 11.8 | Cc1nn(C)c(C)c1N[S+](=O)([O-])c1ccccc1 [DDD48025] | >1 |  | 
16 |  | 11.9 | Cc1nn(C)c(C)c1N[S+](=O)([O-])c1ccc(N2CCN(C)CC2)nc1 [DDD73236] | >1 |  | 
17 |  | > 100 | Cc1cc(C(=O)O)cc([S+](=O)([O-])Nc2c(C)nn(C)c2C)c1C [DDD71608] | >1 |  | 
18 |  | 2.7 | Cc1nn(C)c(C)c1N[S+](=O)([O-])c1ccc(NCc2cccnc2)nc1 [DDD73233] | >1 |  | 
19 |  |  | Cc1c(N[S+](=O)([O-])c2ccc(-c3cccc(CC4CCNCC4)c3)cc2)c(CC(C)C)nn1C [DDD100094] |  | 0.008 | 0.003
20 |  | > 100 | Cc1nn(C)c(C)c1N[S+](=O)([O-])c1ccc(CN2CCCCC2)cc1 [DDD73226] | >1 |  | 
21 | 52.6 |  | Cc1nn(C)c(C)c1N[S+](=O)([O-])c1ccc(COCCCCN(C)C)cc1 [DDD85650] | >1 |  | 

Row | IC50 [2, 3] [µM] | IC50 [2, 4] [µM] | Compound | ED50 (μM) T. brucei ([1]; T. brucei cell growth) [µM] | ED50 (μM) T. brucei [1, 5] [µM] | IC50 [2, 6] [µM]
22 |  | > 100 | Cc1nn(C)c(C)c1N[S+](=O)([O-])c1ccc(COc2ccc(C(C)(C)c3ccccc3)cc2)cc1 [DDD73499] | >1 |  | 
23 |  | > 100 | Cc1nn(C)c(C)c1N[S+](=O)([O-])c1ccc(CN2CCNC(=O)C2)cc1 [DDD73225] | >1 |  | 
24 |  | 0.36 | Cc1nn(C)c(C)c1N[S+](=O)([O-])c1ccc(N(C)Cc2ccc(CN(C)C)cc2)nc1 [DDD85624] | 1.5 |  | 
25 |  | 41 | COc1ccc([S+](=O)([O-])Nc2c(C)nn(C)c2C)cc1NC(C)=O [DDD71622] | >1 |  | 
26 | 1 |  | Cc1nn(C)c(C)c1N[S+](=O)([O-])c1ccc(NCCCN2CCN(c3ccccc3)CC2)nc1 [DDD86291] | >1 |  | 
27 |  | 61.6 | Cc1nn(C)c(C)c1N[S+](=O)([O-])c1ccc(CSc2ccc(Cl)cc2Cl)cc1 [DDD85610] | >1 |  | 
28 |  | 0.9 | Cc1nn(C)c(C)c1N[S+](=O)([O-])c1ccc(N2CCc3ccccc3C2)nc1 [DDD73227] | 8.1 |  | 
29 |  | 0.96 | Cc1nn(C)c(C)c1N[S+](=O)([O-])c1ccc(NCC(C)c2ccccc2)nc1 (centres unmarked) [DDD73495] | 7.8 |  | 
30 |  | 0.61 | Cc1nn(C)c(C)c1N[S+](=O)([O-])c1ccc(N(C)CCCN(C)C)nc1 [DDD85626] | 1.9 |  | 
31 |  | 8.4 | Cc1nn(C)c(C)c1N[S+](=O)([O-])c1ccc2ccccc2c1 [DDD71246] | >1 |  | 
32 |  | 3.5 | Cc1nn(C)c(C)c1N[S+](=O)([O-])c1ccc2c(c1)OCCCO2 [DDD71230] | >1 |  | 
33 |  | 32.6 | Cc1nn(C)c(C)c1N[S+](=O)([O-])c1ccc(C#N)cc1 [DDD71238] | >1 |  | 
34 |  | 69.5 | Cc1nn(C)c(C)c1N[S+](=O)([O-])c1ccc(CSc2ccc(C(C)(C)C)cc2)cc1 [DDD85609] | >1 |  | 
35 | 12.7 |  | Cc1cc(Br)ccc1[S+](=O)([O-])Nc1c(C)nn(C)c1C [DDD88316] | >10 |  | 
36 |  | > 100 | Cc1ccc(C(C)(C)C)cc1[S+](=O)([O-])Nc1c(C)nn(C)c1C [DDD71251] | >1 |  | 
37 |  |  | Cc1nn(C)c(C)c1N[S+](=O)([O-])c1c(Cl)cc(-c2ccnc(N3CCN(C)CC3)c2)cc1Cl [DDD86211, 2,6-Dichloro-4-[2-(4-methyl-piperazin-1-yl)-pyridin-4-yl]-N-(1,3,5-trimethyl-1H-pyrazol-4-yl)-benzenesulfonamide] | 0.19 |  | 
38 |  |  | Cc1nn(C)c(C)c1N(C(F)F)[S+](=O)([O-])c1c(Cl)cc(Br)cc1Cl [DDD100805, 4-bromo-2,6-dichloro-N-(difluoromethyl)-N-(1,3,5-trimethyl-1H-pyrazol-4-yl)benzenesulfonamide] |  | >1 | 
39 |  |  | Cc1nn(C)c(C)c1N(C)[S+](=O)([O-])c1ccc(-c2cccc(CC3CCNCC3)c2)cc1 [DDD90098] | 0.060 |  | 
40 |  |  | Cc1nn(C)c(C)c1N(CC(F)F)[S+](=O)([O-])c1c(Cl)cc(CCCC2CCNCC2)cc1Cl [DDD100145] |  | 0.02 | 
41 |  |  | Cc1nn(C)c(C)c1N(C)[S+](=O)([O-])c1c(Cl)cc(CCCCCn2ccnc2)cc1Cl [DDD99834] |  | 0.225 | 

Row | Compound | IC50 [2, 3] [µM] | IC50 [2, 4] [µM] | ED50 (μM) T. brucei ([1]; T. brucei cell growth) [µM] | ED50 (μM) T. brucei [1, 5] [µM] | IC50 [2, 6] [µM]
42 | COc1cc(C)c([S+](=O)([O-])Nc2cnc3ccccn23)c(C)c1C [DDD71277] |  | 95 | >1 |  | 
43 | Cc1nn(C)c(C)c1N[S+](=O)([O-])c1ccc(-n2cccn2)cc1 [DDD71294] |  | 4.8 | >1 |  | 
44 | Cc1nn(C)c(C)c1N[S+](=O)([O-])c1ccc(NCc2ccc(-n3ccnc3C)cc2)nc1 [DDD73494] |  | 0.71 | 8.8 |  | 
45 | Cc1nn(C)c(C)c1N[S+](=O)([O-])Cc1ccccc1 [DDD71293] |  | > 100 | >1 |  | 
46 | Cc1nn(C)c(C)c1N[S+](=O)([O-])c1ccc(C2OCCO2)cc1 [DDD71276] |  | 9.5 | >1 |  | 
47 | Cc1nn(C)c(C)c1N[S+](=O)([O-])c1ccc(NC2Cc3ccccc3C2)nc1 [DDD73478] |  | 0.36 | 4.5 |  | 
48 | Cc1nn(C)c(C)c1N[S+](=O)([O-])c1ccc(NCc2ccc(N3CCOCC3)cc2)nc1 [DDD73475] |  | 0.88 | 10.5 |  | 
49 | Cc1nn(C)c(C)c1N[S+](=O)([O-])c1ccc2c(c1)C(C)C(=O)N2 (centres unmarked) [DDD71637] |  | 11.7 | >1 |  | 
50 | Cc1nn(C)c(C)c1N[S+](=O)([O-])c1c(Cl)cc(-c2ccco2)cc1Cl [DDD73268] |  | 3.6 | >1 |  | 
51 | Cc1nn(C)c(C)c1N[S+](=O)([O-])c1ccc(NCC(O)c2ccccc2)nc1 (centres unmarked) [DDD73330] |  | 2.3 | >1 |  | 
52 | Cc1cnn(-c2ccc(CNc3ccc([S+](=O)([O-])Nc4c(C)nn(C)c4C)cn3)cc2)n1 [DDD73493] |  | 4.4 | >1 |  | 
53 | CC(=O)Nc1ccc([S+](=O)([O-])Nc2c(C)nn(C)c2C)cc1 [DDD71287] |  | 2.8 | >1 |  | 
54 | Cc1cc(N2CCCC2=O)cc(C)c1[S+](=O)([O-])Nc1c(C)nn(C)c1C [DDD22988] |  | 8.3 | >1 |  | 
55 | COc1cc(C)c([S+](=O)([O-])Nc2ccccc2)c(C)c1C [DDD71292] |  | > 100 | >1 |  | 
56 | COc1cc(C)c([S+](=O)([O-])Nc2c(C)noc2C)c(C)c1C [DDD71285] |  | 19.3 | >1 |  | 
57 | Cc1nn(C)c(C)c1NS(=O)(=O)c1c(Cl)cc(-c2cccc3c2CCNC3)cc1Cl [DDD87762] | 2.6 |  | >1 |  | 
58 | Cc1nn(C)c(C)c1N[S+](=O)([O-])c1ccc(CNc2ccc(-c3ccccn3)cc2)cc1 [DDD73508] |  | 5.2 | >1 |  | 
59 | Cc1nn(C)c(C)c1N[S+](=O)([O-])c1ccc(NCc2ccc3[nH]ccc3c2)nc1 [DDD73332] |  | 0.34 | 3.2 |  | 
60 | Cc1nn(C)c(C)c1N[S+](=O)([O-])c1ccc(NCCc2ccc3ccccc3c2)nc1 [DDD73489] |  | 12.4 | >1 |  | 
61 | COc1cc(C)c([S+](=O)([O-])Nc2cccnc2)c(C)c1C [DDD71288] |  | > 100 | >1 |  | 
62 | Cc1nn(C)c(C)c1N[S+](=O)([O-])c1ccc(CSc2ccc3ccccc3c2)cc1 [DDD73516] |  | 47.6 | >1 |  | 
